From the NIST ThermoML archive (doi:10.1021/je049762q)
Numbers after ± are expanded uncertainties.

Assay: molar heat capacity at constant pressure
Settings: 101.33 kPa

Clc1ccc(Cl)cc1 [1,4-dichlorobenzene]
Settings	molar heat capacity at constant pressure [J/K/mol]
194.87 K, Crystal 3	102.23 ± 0.6
195.23 K, Crystal 3	102.39 ± 0.6
197.82 K, Crystal 3	103.42 ± 0.61
198.11 K, Crystal 3	103.53 ± 0.61
200 K, Crystal 3	104.28 ± 0.61
200.75 K, Crystal 3	104.57 ± 0.61
200.98 K, Crystal 3	104.65 ± 0.61
203.66 K, Crystal 3	105.76 ± 0.61
206.55 K, Crystal 3	106.91 ± 0.61
209.43 K, Crystal 3	108.06 ± 0.62
210 K, Crystal 3	108.29 ± 0.61
212.28 K, Crystal 3	109.21 ± 0.62
215.03 K, Crystal 3	110.08 ± 0.62
215.12 K, Crystal 3	110.42 ± 0.62
217.8 K, Crystal 3	111.29 ± 0.62
217.94 K, Crystal 3	111.43 ± 0.62
220 K, Crystal 3	112.15 ± 0.62
220.54 K, Crystal 3	112.37 ± 0.62
220.75 K, Crystal 3	112.46 ± 0.62
223.28 K, Crystal 3	113.45 ± 0.63
225.99 K, Crystal 3	114.54 ± 0.63
226.32 K, Crystal 3	114.68 ± 0.63
228.7 K, Crystal 3	115.59 ± 0.63
229.08 K, Crystal 3	115.81 ± 0.63
230 K, Crystal 3	116.16 ± 0.63
231.39 K, Crystal 3	116.65 ± 0.63
231.82 K, Crystal 3	116.88 ± 0.63
234.07 K, Crystal 3	117.7 ± 0.64
234.55 K, Crystal 3	117.96 ± 0.64
236.73 K, Crystal 3	118.76 ± 0.64
237.27 K, Crystal 3	119.01 ± 0.64
239.38 K, Crystal 3	119.79 ± 0.64
239.97 K, Crystal 3	119.98 ± 0.64
240 K, Crystal 3	119.99 ± 0.64
242.02 K, Crystal 3	120.79 ± 0.64
242.66 K, Crystal 3	121.05 ± 0.64
244.65 K, Crystal 3	121.76 ± 0.64
245.34 K, Crystal 3	122.11 ± 0.64
247.26 K, Crystal 3	122.73 ± 0.65
248 K, Crystal 3	123.17 ± 0.65
249.87 K, Crystal 3	123.71 ± 0.65
250 K, Crystal 3	123.77 ± 0.65
250.66 K, Crystal 3	124.06 ± 0.65
252.46 K, Crystal 3	124.73 ± 0.65
253.3 K, Crystal 3	125.12 ± 0.65
255.04 K, Crystal 3	125.74 ± 0.65
257.61 K, Crystal 3	126.76 ± 0.65
260 K, Crystal 3	127.72 ± 0.66
260.16 K, Crystal 3	127.77 ± 0.66
262.71 K, Crystal 3	128.79 ± 0.66
265.24 K, Crystal 3	129.78 ± 0.66
267.76 K, Crystal 3	130.84 ± 0.66
270 K, Crystal 3	131.65 ± 0.67
270.28 K, Crystal 3	131.78 ± 0.66
272.78 K, Crystal 3	132.68 ± 0.67
275 K, Crystal 2	134.45 ± 0.67
275 K, Crystal 3	133.61 ± 0.67
280 K, Crystal 2	135.94 ± 0.67
281.42 K, Crystal 2	136.31 ± 0.67
283.88 K, Crystal 2	137.36 ± 0.67
286.32 K, Crystal 2	138.34 ± 0.68
290 K, Crystal 2	139.78 ± 0.68
292.1 K, Crystal 2	140.78 ± 0.68
293.87 K, Crystal 2	141.42 ± 0.68
296.42 K, Crystal 2	142.86 ± 0.69
298.15 K, Crystal 2	143.78 ± 0.69
298.96 K, Crystal 2	144.24 ± 0.69
300 K, Crystal 2	144.8 ± 0.69
301.51 K, Crystal 2	145.69 ± 0.69
306 K, Crystal 1	147.86 ± 0.7
306 K, Crystal 2	147.75 ± 0.7
308.59 K, Crystal 1	148.61 ± 0.7
310 K, Crystal 1	149.45 ± 0.7
311.33 K, Crystal 1	150.45 ± 0.7
314.11 K, Crystal 1	151.51 ± 0.7
316.65 K, Crystal 1	152.8 ± 0.71
319.2 K, Crystal 1	154.18 ± 0.71
320 K, Crystal 1	154.72 ± 0.71
321.74 K, Crystal 1	155.8 ± 0.71
326.24 K, Crystal 1	158 ± 0.71
326.24 K, Liquid	175.98 ± 0.75
330 K, Liquid	176.87 ± 0.76
331.52 K, Liquid	177.33 ± 0.75
332.72 K, Liquid	177.51 ± 0.76
333.8 K, Liquid	177.86 ± 0.76
335.4 K, Liquid	178.04 ± 0.76
336.04 K, Liquid	178.35 ± 0.76
337.95 K, Liquid	178.72 ± 0.76
338.28 K, Liquid	178.83 ± 0.76
340 K, Liquid	179.23 ± 0.76
340.5 K, Liquid	179.25 ± 0.76
340.53 K, Liquid	179.38 ± 0.76
342.77 K, Liquid	179.91 ± 0.76
343.05 K, Liquid	179.96 ± 0.76
345.6 K, Liquid	180.47 ± 0.76
348.14 K, Liquid	181.07 ± 0.76
350 K, Liquid	181.59 ± 0.77
350.69 K, Liquid	181.7 ± 0.76
353.24 K, Liquid	182.31 ± 0.76
355.79 K, Liquid	183.1 ± 0.77
358.34 K, Liquid	183.5 ± 0.77
360 K, Liquid	183.95 ± 0.77
360.89 K, Liquid	184.17 ± 0.77
363.44 K, Liquid	184.8 ± 0.77
368.54 K, Liquid	185.95 ± 0.77
370 K, Liquid	186.3 ± 0.77
371.09 K, Liquid	186.69 ± 0.77
373.64 K, Liquid	187.14 ± 0.77
376.2 K, Liquid	187.74 ± 0.78
380 K, Liquid	188.66 ± 0.77
